# Reference: US20250230193A1, “CYCLIC COMPOUND HAVING SELECTIVE KRAS INHIBITORY EFFECT ON HRAS AND NRAS” (CHUGAI SEIYAKU KABUSHIKI KAISHA, priority 2022, published 2025)
# *1 amine or outer side, *2 acyl side, *3 side chain or, on linkers, in order; H or OH if unused. Where a SMILES comes first, the peptide text is derived from it. Bridges are numbered along the chain shown (N, C = ends). [ ]: non-standard residue; d: D form. The star is where a group is joined. hPhe(3,5-F2-4-CF3) = N[C@@H](CCc1cc(F)c(C(F)(F)F)c(F)c1)C(=O)O; hPhe(3-Cl-4-CF3) = N[C@@H](CCc1ccc(C(F)(F)F)c(Cl)c1)C(=O)O; NPrPhe(4-CF3) = CCCN[C@@H](Cc1ccc(C(F)(F)F)cc1)C(=O)O; NEtPhe(4-Me) = CCN[C@@H](Cc1ccc(C)cc1)C(=O)O; X30 = CCN([C@H](C(=O)[*:2])C1CCCC1)[*:1]; NMeGly(cPent) = CN[C@H](C(=O)O)C1CCCC1; Nva(3-Et) = CCC(CC)[C@H](N)C(=O)O; Hyp = O=C(O)[C@@H]1C[C@@H](O)CN1; NMeD = CN[C@@H](CC(=O)O)C(=O)O; NMeL = CN[C@@H](CC(C)C)C(=O)O; Morpholide = C1CN(*)CCO1; NMeA = CN[C@@H](C)C(=O)O; Ac5c = NC1(C(=O)O)CCCC1; Aze = O=C(O)[C@@H]1CCN1; Sar = CNCC(=O)O
# Assays:
# [1] = biological target: GDP-bound NRAS wild-type protein (Homo sapiens, UniProt P01111); assay: Binding to NRAS by surface plasmon resonance (SPR), Single Cycle Kinetics; settings: SPR; for NRAS/KRAS (ratio of KD value for NRAS to KD value for KRAS) / NRAS/KRAS (ratio of KD value with respect to NRAS to KD value with respect to KRAS): GDP-bound NRAS wild-type vs GDP-bound KRAS wild-type
# GDP-bound NRAS wild-type protein, sequence (P01111 whole entry): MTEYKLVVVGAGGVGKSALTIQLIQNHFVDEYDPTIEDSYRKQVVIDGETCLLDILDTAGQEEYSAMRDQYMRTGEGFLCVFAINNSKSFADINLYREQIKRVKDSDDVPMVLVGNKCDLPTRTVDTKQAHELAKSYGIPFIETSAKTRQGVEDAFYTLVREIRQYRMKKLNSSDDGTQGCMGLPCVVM
# [2] = biological target: GDP-bound HRAS wild-type protein (Homo sapiens, UniProt P01112); assay: Binding to HRAS by surface plasmon resonance (SPR), Single Cycle Kinetics; settings: SPR; for HRAS/KRAS (ratio of KD value for HRAS to KD value for KRAS) / HRAS/KRAS (ratio of KD value with respect to HRAS to KD value with respect to KRAS): GDP-bound HRAS wild-type vs GDP-bound KRAS wild-type
# GDP-bound HRAS wild-type protein, sequence (P01112 whole entry): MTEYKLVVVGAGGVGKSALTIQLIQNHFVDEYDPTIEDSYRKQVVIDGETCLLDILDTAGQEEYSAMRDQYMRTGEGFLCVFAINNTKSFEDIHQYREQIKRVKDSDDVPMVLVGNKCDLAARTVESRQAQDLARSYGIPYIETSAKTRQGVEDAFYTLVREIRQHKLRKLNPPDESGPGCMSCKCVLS
smiles,measurement,setting,value
CCCN(C)C(=O)[C@@H]1CC(=O)N(C)[C@@H](CC(F)F)C(=O)N[C@@H]([C@@H](C)CC)C(=O)N(C)CC(=O)N(C)[C@H]2C/C=C\CCN(C2=O)[C@@H](Cc2ccc(C(F)(F)F)cc2)C(=O)N(C)CC(=O)N[C@@H](CCc2cc(F)c(C(F)(F)F)c(F)c2)C(=O)N2C[C@H](OCC)C[C@H]2C(=O)NC2(CCC2)C(=O)N(C)[C@@H](C2CCCC2)C(=O)N1C [PP1700],NRAS/KRAS (ratio of KD value for NRAS to KD value for KRAS),[1]; KD ratio,A (a compound having 10 or more and less than 20 is denoted as A)
same,HRAS/KRAS (ratio of KD value for HRAS to KD value for KRAS),[2]; KD ratio,A (a compound having 10 or more and less than 20 is denoted as A)
CCOC[C@H]1C(=O)N[C@@H]([C@@H](C)CC)C(=O)N(C)CC(=O)N(C)[C@H]2C/C=C\CCN(C2=O)[C@@H](CC2CCC(F)(F)CC2)C(=O)N(C)CC(=O)N[C@@H](CCc2ccc(C(F)(F)F)c(OC)c2)C(=O)N2C[C@@H](C)C[C@H]2C(=O)NC2(CC(C)(C)C2)C(=O)N(C)[C@@H](C(CC)CC)C(=O)N(C)[C@H](C(=O)N(C)C)CC(=O)N1C [PP2458],NRAS/KRAS (ratio of KD value with respect to NRAS to KD value with respect to KRAS),[1],A (a compound having 10 or more and less than 20 is denoted as A)
same,HRAS/KRAS (ratio of KD value with respect to HRAS to KD value with respect to KRAS),[2],A (a compound having 10 or more and less than 20 is denoted as A)
CC[C@H](C)[C@@H]1NC(=O)[C@H](CC(C)C)N(C)C(=O)C[C@@H](C(=O)N2CCOCC2)N(C)C(=O)[C@H](C2CCCC2)N(C)C(=O)C2(CCCC2)NC(=O)[C@@H]2CCCN2C(=O)[C@H](CCc2ccc(C(F)(F)F)c(Cl)c2)NC(=O)CN(C)C(=O)[C@H](C2CCCC2)N(CC)C(=O)CN(C)C(=O)CN(C)C1=O [PP0024] ([NMeL]I[Sar][Sar][X30][Sar][hPhe(3-Cl-4-CF3)]P[Ac5c][NMeGly(cPent)][NMeD]-Morpholide; lactam N-11),NRAS/KRAS (ratio of KD for GDP-bound NRAS wild-type to KD for KRAS),[1]; KD ratio NRAS/KRAS,B (a compound having 3 or more and less than 10 is denoted as B)
same,HRAS/KRAS (ratio of KD for GDP-bound HRAS wild-type to KD for KRAS),[2]; KD ratio HRAS/KRAS,C (A compound having a KD ratio of 0.1 or more and less than 3 is denoted as C)
CC[C@H](C)[C@@H]1NC(=O)[C@H](CC(C)C)N(C)C(=O)C[C@@H](C(=O)N2CCOCC2)N(C)C(=O)[C@H](C2CCCC2)N(C)C(=O)C2(CCCC2)NC(=O)[C@@H]2C[C@@H](O)CN2C(=O)[C@H](CCc2ccc(C(F)(F)F)c(Cl)c2)NC(=O)CN(C)C(=O)[C@H](Cc2ccc(C)cc2)N(CC)C(=O)[C@@H]2CCN2C(=O)[C@H](C)N(C)C1=O [PP0013] ([NMeL]I[NMeA][Aze][NEtPhe(4-Me)][Sar][hPhe(3-Cl-4-CF3)][Hyp][Ac5c][NMeGly(cPent)][NMeD]-Morpholide; lactam N-11),NRAS/KRAS (ratio of KD for GDP-bound NRAS wild-type to KD for KRAS),[1]; KD ratio NRAS/KRAS,C (A compound having a KD ratio of 0.1 or more and less than 3 is denoted as C)
same,HRAS/KRAS (ratio of KD for GDP-bound HRAS wild-type to KD for KRAS),[2]; KD ratio HRAS/KRAS,C (A compound having a KD ratio of 0.1 or more and less than 3 is denoted as C)
CCO[C@@H]1C[C@H]2C(=O)NC3(CCC3)C(=O)N(C)[C@@H](C3CCCC3)C(=O)N(C)[C@H](C(=O)N(C)C)CC(=O)N(C)[C@@H](CC(C)C)C(=O)N[C@@H]([C@@H](C)CC)C(=O)N(C)CC(=O)N(C)[C@H]3CCCCCN(C3=O)[C@@H](Cc3ccc(F)cc3)C(=O)N(C)CC(=O)N[C@@H](CCc3ccc(C(F)(F)F)c(Cl)c3)C(=O)N2C1 [PP0972],NRAS/KRAS (ratio of KD value with respect to NRAS to KD value with respect to KRAS),[1]; KD ratio,B (a compound having 3 or more and less than 10 is denoted as B)
same,HRAS/KRAS (ratio of KD value with respect to HRAS to KD value with respect to KRAS),[2]; KD ratio,B (a compound having 3 or more and less than 10 is denoted as B)
CCO[C@@H]1C[C@H]2C(=O)NC3(CC(F)(F)C3)C(=O)N(C)[C@@H](C3CCCC3)C(=O)N(C)[C@H](CC)CC(=O)N(C)[C@@H](CC3CC3)C(=O)N[C@@H]([C@@H](C)CC)C(=O)N(C)CC(=O)N(C)[C@H]3C/C=C\CCN(C3=O)[C@@H](Cc3ccc(C(F)(F)F)cc3)C(=O)N(C)CC(=O)N[C@@H](CCc3cc(F)c(C(F)(F)F)c(F)c3)C(=O)N2C1 [PP1633],NRAS/KRAS (ratio of KD value for NRAS to KD value for KRAS),[1]; KD ratio,A (a compound having 10 or more and less than 20 is denoted as A)
same,HRAS/KRAS (ratio of KD value for HRAS to KD value for KRAS),[2]; KD ratio,B (a compound having 3 or more and less than 10 is denoted as B)
"CCCN1C(=O)CN(C)C(=O)[C@@H]2CCN2C(=O)[C@H](C(CC)CC)NC(=O)[C@H](CC(C)C)N(C)C(=O)C[C@@H](C(=O)N2CCOCC2)N(C)C(=O)[C@H](C2CCCC2)N(C)C(=O)C2(CCCC2)NC(=O)[C@@H]2CCCN2C(=O)[C@H](CCc2cc(F)c(C(F)(F)F)c(F)c2)NC(=O)CN(C)C(=O)[C@@H]1Cc1ccc(C(F)(F)F)cc1 [PP0785] ([NMeL][Nva(3-Et)][Aze][Sar][NPrPhe(4-CF3)][Sar][hPhe(3,5-F2-4-CF3)]P[Ac5c][NMeGly(cPent)][NMeD]-Morpholide; lactam N-11)",NRAS/KRAS (ratio of KD value with respect to GDP-bound NRAS wild-type protein to KD value with respect to KRAS),[1]; KD ratio NRAS/KRAS,B (a compound having 3 or more and less than 10 is denoted as B)
same,HRAS/KRAS (ratio of KD value with respect to GDP-bound HRAS wild-type protein to KD value with respect to KRAS),[2]; KD ratio HRAS/KRAS,B (a compound having 3 or more and less than 10 is denoted as B)
